The source of these data is a melting point compilation (Tetko et al.; mined from patent text by program, amines drawn as free bases though some values may be those of a salt).

Molecules are shown by their SMILES.

As a reminder, the melting point is the temperature of the solid-liquid transition. As to `CCOC(=O)C=Cc1ccc(C)nc1`, the melting point was 36 to 37 °C.

On to `CO[C@]1(c2csc(S(=O)(=O)c3ccc4c(c3)CC/C4=N\O)c2)CCO[C@@H]1C` (racemic), for which the melting point is 170 to 172 °C.

In the case of `O=C(O)COc1cccc2cc(COCC(c3ccccc3)c3ccccc3)oc12`, the melting point is 141 to 142 °C.

Molecule `FC(F)(F)c1cc(Cl)c(-n2cc(C3CC3(Cl)Cl)nn2)c(Cl)c1` (configuration not stated) came in with a melting point of 134 to 136 °C.

With `CC(C)(C(=O)OCC(=O)c1ccccc1)n1c(=O)[nH]c2ccc(F)cc2c1=O`, the melting point lay within 192 to 193 °C.

Turning to `Cc1csc(-c2ccc3c(=O)n(CC(C)C)c(CN)c(-c4ccccc4)c3c2)n1`, the melting point was in the range of 162 to 163 °C.

The molecule `O=C1c2ccccc2C(=O)N1CCCCI` yielded a melting point of 85 to 87 °C.

Take `CC(C)C(C(=O)O)N1CCCNC1=O` (configuration not stated): the melting point lay in the range of 176 to 177 °C.

The molecule `COCOc1ccccc1-c1cc(-c2cccc(C(=O)O)c2)c(C#N)c(NC(=O)c2cccs2)n1` displayed a melting point of 179 to 180 °C.

In turn, `CC(=C1SCCCS1)c1cccnc1` registered a melting point of 34 to 36 °C.

Molecule `COC1=CC(=O)c2ccccc2C1=O` displayed a melting point of 182 to 183 °C.

In the case of `COc1cc(C)cc2c1C(C)(C)CCC2(C)C`, the melting point is 49 to 50 °C.

As for `COc1ccc(-c2cc(=O)c3ccc(OCC(O)CN4CCN(c5ccccc5)CC4)cc3o2)cc1OC` (configuration not stated), the melting point lay within 191 to 193 °C.

As to `COc1ccc(CCC(=O)c2ccc(O)cc2)c(OC)c1`, the melting point lay within 126 to 127 °C.

`O=C(CCCl)Nc1ccc2[nH]c3ccc(NC(=O)CCCl)cc3c(=O)c2c1`: the melting point is > 350 °C.

Take `N#Cc1nc(-c2ccc(=O)[nH]c2)c(-c2ccccc2)nc1N`: the melting point is 243 to 248 °C.

The molecule `Cc1cccc(C)c1NC(=O)c1ccc(C(N)=O)cc1` showed a melting point of 246 to 248 °C.

Molecule `CCOC(=O)c1cn(N)c2nc(C)ccc2c1=O` had a melting point of 173 to 174 °C.

Regarding `CSC1C(=O)Nc2c(C(=O)c3ccccc3)cccc21` (configuration not stated), the melting point amounted to 130 °C.

`Cc1c[nH]c(=O)c2c3c([nH]c12)CCC(=O)C3`: the melting point is > 260 °C.

`CS(=O)(=O)OC[C@H]1CN(c2ccc(C3=CCSCC3)c(F)c2)C(=O)O1` yielded a melting point of 138 to 141 °C.

Regarding `CCCCn1c(N)c(N=O)c(=O)n(CCCC)c1=O`, the melting point lay within 199 to 205 °C.

Regarding `O=C(NOCCO)c1cc(Cl)c(F)c(F)c1Nc1ccc(I)cc1F`, the melting point turned out to be 180 °C.

As for `COC(=O)c1c(Sc2nc(OC)cc(OC)n2)cccc1C(C)=O`, the melting point lay in the range of 149 to 151 °C.

`O[C@H]1[C@H](O)CS[C@H]1n1cnc2c(Cl)nc(Cl)nc21` registered a melting point of 198 to 200 °C.

Molecule `CNC(=O)C(Cc1ccc(OC)cc1)NC(=O)C(CC(C)C)C(S)CC(=O)NCC(N)=O` (configuration not stated) registered a melting point of 247 to 252 °C.

Molecule `CC(=O)Nc1cc(-n2c(-c3ccccc3)cc3c2CCCC3)cc(C(=O)O)c1O` yielded a melting point of 232 to 234 °C.

As for `C=C(C)c1ccc(-c2ccc(OC(C)=O)cc2)cc1`, the melting point was 131 to 132 °C.

`CC1Sc2nc3c(cnn3C)c(=O)n2C1C` (configuration not stated) showed a melting point of 168 to 170 °C.

In turn, `O=C(Nc1nc(-c2ccoc2)c(C(=O)C2CCOCC2)s1)c1ccnc(Cl)c1` gave a melting point of 202 to 204 °C.

`CC(C)(C)OC(=O)c1cc(O[C@H]2CC[C@H](NC(=O)Nc3ccc(Cl)c(C(F)(F)F)c3)CC2)ccn1` yielded a melting point of 101 to 117 °C.

Molecule `Cc1c(C)n(-c2ccccc2)c2ncn(C)c(=O)c12` displayed a melting point of 207 to 208 °C.

Molecule `CC(=NNc1ccccc1[N+](=O)[O-])c1ccccn1` gave a melting point of 145 to 146 °C.

As to `CC(C)(C)c1cc(C(=O)C(=O)O)cc(C(C)(C)C)c1O`, the melting point was in the range of 125 to 126 °C.

Turning to `N#Cc1cnn2cccc2c1NC1(c2ccc(Cl)cc2Cl)CC1`, the melting point is 208 °C.

On to `C=CCOC(=O)C1=C2[C@@H](OC)CCC[C@@H]2[C@@H]2[C@@H]([C@H](O)C(F)(F)F)C(=O)N12`, for which the melting point is 78 to 85 °C.

The molecule `CC1(C)C(C=CC(=O)Oc2ccccc2)C1C(=O)O` (configuration not stated) returned a melting point of 57 °C.

In turn, `CC(C)(C)OC(=O)NCc1cc([N+](=O)[O-])ccc1Cl` registered a melting point of 77 °C.

With `CN(C)C1CCc2[nH]c3c(C(N)=O)cccc3c2C1` (configuration not stated), the melting point fell in the range of 252 to 254 °C.

Molecule `c1cnc(NCCN2CCC(=C3c4ccccc4CCn4ncnc43)CC2)nc1` came in with a melting point of 162 °C.

Take `CCCc1nn(C)c2c(=O)[nH]c(-c3sccc3OCC)nc12`: the melting point lay in the range of 151 to 152 °C.

`COc1cc(C(C)C)c2c(c1)S(=O)(=O)N(COc1cc(C)nn1-c1ccc([N+](=O)[O-])cc1)C2=O` came in with a melting point of 196 to 198 °C.

With `CCCn1c(COCC)nc2c(N)nc3ccc(OC4CCN(C(=O)C(C)C)CC4)cc3c21`, the melting point fell in the range of 177 to 179 °C.

`Nc1ccc(-c2ncccn2)cc1` came in with a melting point of 236 to 238 °C.

For the molecule `CSC(=S)NCc1cn(-c2ccc(N3CCOCC3)c(F)c2)nn1`, the melting point turned out to be 148 °C.

Consider `COc1cnn(C2CCCCO2)c(=O)c1` (configuration not stated), for which the melting point was 76 to 78 °C.

Molecule `N#Cc1ccc(C(=O)N2CC2C#N)cc1` (configuration not stated) yielded a melting point of 107 to 110 °C.

For the molecule `CCc1ccc(Cc2cc(Br)cc(Br)c2O)cc1`, the melting point was in the range of 90 to 91.5 °C.

In turn, `C[Si](C)(C)CCCOc1ccc(C(=O)O)c(O)c1` returned a melting point of 187 °C.

On to `COc1ccccc1-c1ccc2cnc(Nc3cccc(C4CCN(C)CC4)c3OC)nn12`, for which the melting point was in the range of 74 to 89 °C.

In the case of `CC#Cc1cc(Cl)nc(Nc2ccccc2)n1`, the melting point was 121 to 124 °C.

Regarding `COc1ccc(C2CCCN(C(=O)C(F)(F)F)C2)cc1NC(=O)NOCc1ccccc1` (configuration not stated), the melting point amounted to 134 °C.

Consider `Ic1cnc(N2CCNCC2)nc1`, for which the melting point was 39 to 40 °C.

In turn, `Cn1c(-c2ccccc2)nc2cnc3ccccc3c21` yielded a melting point of 168 to 170 °C.

The molecule `COCCNC(=O)Nc1nc2cc(OS(=O)(=O)c3c(C)cc(C)cc3C)ccc2[nH]1` had a melting point of 140 °C.

In turn, `CC(C)NC(=O)N[C@@H](Cc1ccccc1)[C@H](O)[C@H](O)[C@H](Cc1ccccc1)NC(=O)NC(C)C` came in with a melting point of 220 to 222 °C.

For `N#Cc1ccc2c(c1)NC(=O)CO2`, the melting point lay within 243 to 245 °C.

Take `CSc1cc(C(C)(C)C)ccc1O`: the melting point was found to be 160 °C.

In the case of `CC(C(=O)NCCCC(F)(F)F)(c1ccccc1)c1ccccc1`, the melting point was 82 °C.

Molecule `CCCCCCCCNC(=O)/C=C\SC(=O)c1ccc(F)cc1` displayed a melting point of 87 to 91 °C.

`O=[N+]([O-])c1ccc(NCCNS(=O)(=O)c2ccccc2)cc1` gave a melting point of 171 °C.

`CNC(=O)c1ccc(N2CCN(Cc3cc4c(c(OC)c3)OC(C)C(=O)N4)CC2)cc1` (configuration not stated) registered a melting point of 256 °C.

As to `COc1ccc(-c2cccc3nc(Nc4cc(OC)c(OC)c(OC)c4)oc23)cn1`, the melting point was 192 to 193 °C.

On to `C#CCNc1c(-c2c(F)cc(F)cc2F)c(Cl)nc2ncnn12`, for which the melting point came out at 141 °C.

Consider `CCOc1cccc(CC(=O)O)c1OCCCc1cn(-c2ccc(C(F)(F)F)cn2)nc1C(C)C`, for which the melting point lay in the range of 141 to 142 °C.

In turn, `CCCc1c(OCCCOc2ccc(C(=O)O)cc2F)ccc(C(C)=O)c1OC(C)=O` gave a melting point of 144 to 145 °C.

Consider `CC(C(=O)O)c1ccc2c(c1)C(=O)Cc1cc(N)ccc1S2` (configuration not stated), for which the melting point lay within 189 to 191 °C.

The molecule `CN1CCCCC1CCc1ccccc1NC(=O)c1ccc(Br)cc1` (configuration not stated) gave a melting point of 138 °C.

For `CCSC=C1SC(=O)N(CCCCSc2cccc3nccn23)C1=O`, the melting point is 159 to 160 °C.

Turning to `COc1cc(OC)c(F)c(N2Cc3cnc(SC)nc3N(C3CCCC3)C2=O)c1F`, the melting point lay within 167 to 169 °C.

With `O=C(NC1=Nc2cc(O)ccc2C2=NCCN12)c1cccnc1`, the melting point is 289 °C.

Take `CCCc1nc2c(N)nc3ccccc3c2n1CC(C)(C)C(=O)N1CCOCC1`: the melting point is 212 to 214 °C.

Molecule `CCOc1cc2c(Nc3cc(OC)c(Cl)cc3Cl)c(C#N)cnc2cc1OCCN1CCN(C)CC1` gave a melting point of 141 to 143 °C.

As for `CCc1ccc(C2CCN(CCCCNC(=O)c3ccc(NC(=O)c4ccc(Cl)cc4)cc3)CC2)c(OC)c1`, the melting point was 235 °C.

With `CCOC(=O)c1cc(-c2ccc(Cl)c(Cl)c2)nn1C`, the melting point lay in the range of 122 to 124 °C.

For the molecule `COC(=O)CCCCCOc1ccc(NC(=O)CCCCCO)cc1`, the melting point lay within 73 to 75.5 °C.

For `CN1CCC(=C2c3ccc(Cl)cc3CCc3cccnc32)CC1`, the melting point fell in the range of 116 to 119 °C.

The molecule `CN(C)CCCCCCNc1nc2cc(Cl)c(Cl)cc2nc1-c1ccccn1` gave a melting point of 88 to 90 °C.

On to `CCC1c2ccccc2-c2ccccc21`, for which the melting point is 152 to 154 °C.

On to `Cn1cc(Br)nc(Nc2cnn(CCO[Si](C)(C)C(C)(C)C)c2)c1=O`, for which the melting point is 172 to 173 °C.

The molecule `CC1(N2C(=O)c3cccc(N)c3C2=O)CCC(=O)NC1=O` (configuration not stated) had a melting point of 268 to 269 °C.

Molecule `Cc1nn(C)c(-c2ccccc2)c1N` had a melting point of 138 to 139 °C.

Take `O=C1CSCN1CC#CCN1CCC(n2c(=O)[nH]c3ccccc32)CC1`: the melting point fell in the range of 202 to 204 °C.

In turn, `CON(C(=Cc1ccccc1)C(N)=O)c1ccccc1` yielded a melting point of 69 °C.

The molecule `CNC(=O)c1cc(-c2cccc3nc(Nc4cc(OC)c(OC)c(OC)c4)oc23)cs1` yielded a melting point of 260 to 262 °C.

As to `Cc1ccc2c(c1)Sc1ccc(Cl)cc1CC2N1CCN(C)CC1` (configuration not stated), the melting point is 136 to 138 °C.

For the molecule `Cc1ccc(Oc2ccccc2C(=N)NN)c(O)c1`, the melting point was > 260 °C.

As to `COC(=O)c1ccc2c(=O)[nH]c(=O)n(CCCCBr)c2c1`, the melting point lay in the range of 184 to 185 °C.

`CCN(CC)CCOc1ccc(Nc2ncc3ccc(=O)n(C(C)C)c3n2)cc1` showed a melting point of 84 to 85 °C.

Molecule `O=C(O)COCc1cc(Br)ccc1C(=O)O` showed a melting point of 194 to 196 °C.

`COC(=O)c1ccc(Cl)c(CN2CCSC2=NC#N)c1Cl` came in with a melting point of 158 °C.

In turn, `O=C(NCc1ccccn1)Nc1cc(N2C(=O)C3(CCCC3)c3ccccc32)ccn1` gave a melting point of 135 °C.
